Results from paper PMC7179167 (Molecules, 2020).
In brackets after ≈: the same amount, converted by molar mass. Read-outs that look alike come from different tables or passages of the source.

Experiments:
[1] = DPPH free radical scavenging assay; type: biochemical; settings: concentration of 20µg/l, mean ± SD of three experiments
Protocol: Antioxidant activity of the newly synthesized 13a–i, 14a–i, 11a–c and 12a–c were assessed in terms of hydrogen-donating or radical-scavenging ability via the stable free radical 1,1-diphenyl-2-picrylhydrazyl (DPPH) using ascorbic acid as a reference at a concentration of […].
The free radical scavenging activity (RSA) was assessed spectrophotometically at 517 nm via decoloration of the solution of the DPPH (1,1-diphenyl-2-picrylhydrazyl) radical according to Brand-Williams et al. 1995 [32]. DPPH solution was prepared by dissolving of 20 mg of DPPH in one liter of dimethylsulphoxide (DMSO). A freshly prepared DPPH solution was used for the assay. Each of the tested compounds 11a–c, 12a–c, 13a–i, 14a–i and 15a,b were dissolved in DMSO (1mg/mL). A volume of […] of a DMSO stock solution of the test compounds was added to 2 mL of freshly prepared DPPH in DMSO solution. The mixtures were shaken in a vortex (2500 rpm) for 1 min and then left to stand for 15, 30, 45 and 60 min in the dark room. The absorbance was measured at 517 nm against blank using UV visible spectrophotometer 2401 PC (Shimadzu, Kyoto, Japan). Lower absorbance of the reaction mixture indicated higher free radical scavenging activity was analyzed from the graph plots of the inhibition percentage against the compound concentration. The experiment was carried out in triplicate and averaged. The scavenging activity was calculated according to the following formula:Scavenging ability (%) = (A517 of control - A517of sample / A 517 of control) ×100(1)

[2] = test system: HCT-116 (human colon cancer); assay: MTT cytotoxicity assay, HCT-116; type: cell-based; settings: Homo sapiens; for inhibition at 100 µg/mL: HCT-116, 100 µg/ml, 48 h, read-out: Growth Inhibition (%) HCT-116; for IC50: HCT-116, 48 h, 48 h post-treatment
[3] = test system: MCF-7 (human breast cancer); assay: MTT cytotoxicity assay, MCF-7; type: cell-based; settings: for inhibition at 100 µg/mL: MCF7, 100 µg/ml, 48 h, read-out: Growth Inhibition (%) MCF-7; for IC50: MCF7, 48 h post-treatment
[4] = test system: normal skin fibroblast cells (BJ-1); assay: MTT cytotoxicity assay, normal skin fibroblast BJ-1; type: cell-based; settings: Homo sapiens, 48 h, read-out: Growth Inhibition (%) BJ-1
[5] = 15 min, read-out: Scavenging Activity (%) on DPPH radicals at 15 min
[6] = 30 min, read-out: Scavenging Activity (%) on DPPH radicals at 30 min
[7] = 45 min, read-out: Scavenging Activity (%) on DPPH radicals at 45 min
[8] = 60 min, read-out: Scavenging Activity (%) on DPPH radicals at 60 min

Structure (SMILES) | melting point | inhibition [1, 5] | inhibition [1, 6] | inhibition [1, 7] | inhibition [1, 8] | inhibition at 100 µg/mL [2] | inhibition at 100 µg/mL [3] | inhibition at 100 µg/mL [4] | IC50 [2] | IC50 [3]
O=C1O[C@H]([C@@H](O)CO)C(O)=C1O [Ascorbic acid, ascorbic acid, reference compound] |  | 94.4 ± 1.74% | 97.5 ± 1.32% | 98.78 ± 0.94% | 99.67 ± 0.28% |  |  |  |  | 
O=C1Nc2ccccc2C12CC(c1cn(S(=O)(=O)c3ccc(Cl)cc3)c3ccccc13)=NN2c1ccccc1 (centres unmarked) [Compound 14h, 5’-(N-(4-Chloro-benzenesulfonyl)-1H-indol-3-yl)-2’-phenyl-2’,4’-dihydrospiro(indoline-3,3’-pyrazol)-2-one] | 110 to 112 °C | 57.9 ± 1.36% | 67.3 ± 1.35% | 72 ± 1.82% | 86 ± 2.17% | 96.2% | 94% | 86.5% |  | 
CCn1cc(C2=NN(c3ccccc3)C3(C2)C(=O)Nc2ccccc23)c2ccccc21 (centres unmarked) [Compound 14b, 5’-(N-Ethyl-1H-indol-3-yl)-2’-phenyl-2’,4’-dihydrospiro(indoline-3,3’-pyrazol)-2-one] | 108 to 110 °C | 42.4 ± 1.45% | 58.1 ± 1.28% | 60.3 ± 1.66% | 66 ± 1.64% | 84.6% | 80.3% | 8.1% | 40.1 µg/mL (≈ 98.6 µM) | 36.3 µg/mL (≈ 89.3 µM)
O=C1Nc2ccccc2C12CC(c1cn(S(=O)(=O)c3ccccc3[N+](=O)[O-])c3ccccc13)=NN2c1ccccc1 (centres unmarked) [Compound 14i, 5’-(N-(2-Nitro-benzenesulfonyl)-1H-indol-3-yl)-2’-phenyl-2’,4’-dihydrospiro(indoline-3,3’-pyrazol)-2-one] | 152 to 154 °C |  |  |  |  | 35.1% | 52.3% | 78.6% |  | 
O=C(c1ccccc1)n1cc(C2=NN(c3ccccc3)C3(C2)C(=O)Nc2ccccc23)c2ccccc21 (centres unmarked) [Compound 14d, 5’-(N-Benzoyl-1H-indol-3-yl)-2’-phenyl-2’,4’-dihydrospiro(indoline-3,3’-pyrazol)-2-one] | 100 to 102 °C | 39.9 ± 1.75% | 41.8 ± 1.49% | 45 ± 1.37% | 55.4 ± 1.33% | 96.2% | 94% | 9.5% | 30.7 µg/mL (≈ 63.6 µM) | 31.6 µg/mL (≈ 65.5 µM)
O=C(c1ccc(Cl)cc1)n1cc(C2=NN(c3ccccc3)C3(C2)C(=O)Nc2ccccc23)c2ccccc21 (centres unmarked) [Compound 14f, 5’-(N-(4-Chlorobenzoyl)-1H-indol-3-yl)-2’-phenyl-2’,4’-dihydrospiro(indoline-3,3’-pyrazol)-2-one] | 162 to 164 °C | 9.05 ± 1.63% | 10.2 ± 1.83% | 16.2 ± 1.21% | 22.9 ± 1.62% | 91.4% | 89.3% | 14.5% | 35.8 µg/mL (≈ 69.2 µM) | 31.2 µg/mL (≈ 60.3 µM)

Now from value to compound, other results behind:

melting point | Structure (SMILES) | inhibition [1, 5] | inhibition [1, 6] | inhibition [1, 7] | inhibition [1, 8] | inhibition at 100 µg/mL [2] | inhibition at 100 µg/mL [3] | inhibition at 100 µg/mL [4] | IC50 [2] | IC50 [3]
96 to 98 °C | O=C1Nc2ccccc2C12CC(c1cn(Cc3ccccc3)c3ccccc13)=NN2c1ccccc1 (centres unmarked) [Compound 14c, 5’-(N-Benzyl-1H-indol-3-yl)-2’-phenyl-2’,4’-dihydrospiro(indoline-3,3’-pyrazol)-2-one] | 14.8 ± 1.36% | 22.6 ± 1.79% | 26.3 ± 1.23% | 39.5 ± 1.61% | 91.8% | 92.3% | 13.6% | 40.5 µg/mL (≈ 86.4 µM) | 32.5 µg/mL (≈ 69.4 µM)
78 to 80 °C | O=C(c1ccccc1Cl)n1cc(C2=NN(c3ccccc3)C3(C2)C(=O)Nc2ccccc23)c2ccccc21 (centres unmarked) [Compound 14e, 5’-(N-(2-Chlorobenzoyl)-1H-indol-3-yl)-2’-phenyl-2’,4’-dihydrospiro(indoline-3,3’-pyrazol)-2-one] | 17.9 ± 1.23% | 28.2 ± 1.27% | 30.9 ± 1.98% | 34.9 ± 1.72% | 35.1% | 85.3% | 16.6% |  | 54 µg/mL (≈ 104 µM)
